{"source": "patent US8834549B2", "about": "“One-step phosphorylcholine-linked polymer coating and drug loading of stent” (Abbott Laboratories, priority 2007, dated 2014)", "assay": "Total drug level on stents after ETO cycles by extraction and HPLC", "assay_type": "physicochemical", "settings": "5 stents with 1 ETO cycle, 5 stents with 3 ETO cycles", "protocol": "Weighed 129 mg of ABT-578, a rapamycin derivative and 280 mg of phosphorylcholine-linked methacrylate terpolymer PC1036 and dissolved them in 10 ml of […] by shaking overnight protected from light. The solution was filtered through a 0.45 micron Teflon filter and the solution was added to the syringe reservoir of a semi-automated spray atomization gun coupled to a lathe-like device designed to hold stents, rotate them and translate them linearly in front of the spray gun. The equipment was programmed to spray enough solution in order to obtain about 10 micrograms of drug per linear mm of stent length, taking into account the losses of solution due to lack of contact with the stent as it is sprayed. After spraying, the stents were allowed to dry in air, followed by packaging them individually in glass vials sealed with an ETO permeable Tyvec membrane. The samples were sent out for ETO sterilization by one or three complete cycles.\nAnalysis was done of the total drug level from 5 stents that underwent 1 ETO cycle and 5 stents that underwent 3 ETO cycles using standard extraction and HPLC analysis.", "data": [{"smiles": "CO[C@H]1C[C@@H]2CC[C@@H](C)[C@@](O)(O2)C(=O)C(=O)N2CCCC[C@H]2C(=O)O[C@H]([C@H](C)C[C@@H]2CC[C@H](n3cnnn3)[C@H](OC)C2)CC(=O)[C@H](C)/C=C(\\C)[C@@H](O)[C@@H](OC)C(=O)[C@H](C)C[C@H](C)/C=C/C=C/C=C/1C", "note": "[ABT-578]", "values": [{"measurement": "stability of drug on stent to ETO cycles (total drug level, 3 cycles vs 1 cycle)", "value": "stable to 3 ETO cycles"}]}]}
